The values below come from paper PMC11930985 (Nature Communications, 2025).

Structures are written as SMILES. Where two headings read alike, the source gives them in different places. Some results are limits rather than exact numbers.

The subject of one data set is AML/MDS patients. The method, then:
Safety assessments including standard clinical laboratory safety tests (hematology, biochemistry, coagulation, and urinalysis), physical examinations, vital signs (blood pressure, heart rate, respiration rate and temperature), and ECOG performance status were performed at baseline and throughout the study. Electrocardiograms were obtained at screening, Cycle 1 Day 1–4, 8, and 15, Cycle 2 Day 1, 8 and 15, at Day 1 of each cycle thereafter, (up to and including Cycle 15), and at Final Study Visit. QT prolongation was assessed using the Fridericia correction […] [34]. Severity of QTcF prolongation was defined as follows: Grade 1: maximum prolongation 450–480 ms; Grade 2: maximum prolongation 481-500 ms; Grade 3: ≥501 ms on at least two separate ECGs; Grade 4: ≥501 ms or >60 ms change from baseline, with Torsades de pointes, polymorphic ventricular tachycardia or signs/symptoms of serious arrythmia; Grade 5: Death.
Adverse events (AEs) were monitored starting at study enrolment until 28 days after end of treatment and graded according to the National Cancer Institute Common Terminology Criteria for Adverse Events (NCI-CTCAE) version 4.0. If drug-related toxicities continued beyond the follow-up period, patients were followed until all drug-related toxicities resolved to grade ≤1, stabilized or returned to baseline.

A further data set deals with AML patients. As to conditions: cited from earlier work; for Remissions (CR and CRi), patients: patients not eligible for intensive chemotherapy.
The next data set relates to CYP3A4. Details: method as in Investigator's Brochure (IB) version 5.0. As to conditions: preliminary results; ref Investigator's Brochure (IB) version 5.0; cited from earlier work.

Turning to `Nc1ccn([C@@H]2O[C@H](CO)[C@@H](O)[C@@H]2O)c(=O)n1` [Cytarabine, reference compound], the “Patients with cytarabine dose-reduced” value in the data set on AML/MDS patients (LDAC cohorts) is listed as 4. In addition, in the data set with AML/MDS patients (human, in vivo), the “Patients with cytarabine interrupted” value was 8 and the “Patients with cytarabine withdrawn” value was determined as 1. The Response rate in the data set on AML patients (R/R-AML) was less than 20%. In addition, the “Remissions (CR and CRi), patients” value in the data set with AML patients is “less than 35%”. In addition, the “Extensive metabolism by CYP3A4” value with CYP3A4 is given as “does not”.
Regarding `Nc1ncn([C@@H]2O[C@H](CO)[C@@H](O)[C@H]2O)c(=O)n1` [azacitidine], in the data set with AML patients, the “Remissions (CR and CRi), patients” value is on record as “less than 35%”.
Take `Nc1ncn([C@H]2C[C@H](O)[C@@H](CO)O2)c(=O)n1` [decitabine]: the “Remissions (CR and CRi), patients” value in the data set on AML patients is “less than 35%”.
`CC1(C)CCC(CN2CCN(c3ccc(C(=O)NS(=O)(=O)c4ccc(NCC5CCOCC5)c([N+](=O)[O-])c4)c(Oc4cnc5[nH]ccc5c4)c3)CC2)=C(c2ccc(Cl)cc2)C1` [venetoclax]: in the data set on AML patients (HMA or LDAC plus venetoclax, venetoclax-naïve R/R-AML), the Response rate was 31%. The Response rates in the data set on AML patients (venetoclax added to less-intensive regimens (HMAs or LDAC), frontline) is 60–75%.
